US20060069132A1, “Azolecarboxamide herbicides” (priority 2004, published 2006)
Where two headings read alike, the source gives them in different places.

Tests used:
wheat = assay: Test B postemergence herbicide test; type: in vivo, Triticum aestivum; settings: Triticum aestivum, post-emergence, 336 h, postemergence, read-out: Wheat plant response rating
Summary of the method: (§1)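 Scale 0–100: zero equals no visible effect, 100 complete control, judged by eye relative to controls. Timing: 13 to 15 days in greenhouse post-treatment. Growth stage at spraying: two leaves (paddy) or one to four leaves, 2–18 cm (postemergence).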

rice = assay: Test B flooded paddy test; type: in vivo, Oryza sativa; settings: Oryza sativa, 336 h, 1000 g ai/ha, scale 0 to 100 (0 no effect, 100 complete control), read-out: Rice plant response rating
Summary of the method: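 Read-out: visual comparison with controls, scored 0 to 100, where 100 means complete control and 0 no effect. Formulated chemicals were applied postemergence to plants 2–18 cm tall (1- to 4-leaf), or to flooded-paddy plants at the 2-leaf stage, then held 13 to 15 days under glass.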

blackgrass = assay: Test B postemergence herbicide test; type: in vivo, Alopecurus myosuroides; settings: Alopecurus myosuroides, post-emergence, 336 h, postemergence, visual rating, scale 0 (no effect) to 100 (complete control), read-out: Blackgrass plant response rating
Summary of the method: (§2)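 Each value is a visual 0–100 response rating taken against controls 13 to 15 days after treatment in the greenhouse. Plants received formulated chemical postemergence at the 1- to 4-leaf stage or, in flooded paddy, at the 2-leaf stage.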

cocklebur = assay: Test B pre-/postemergence herbicide test; type: in vivo, Xanthium strumarium; settings: Xanthium strumarium; for pest or weed control at 125 g/ha: 125 g ai/ha; for pest or weed control at 500 g/ha: 500 g ai/ha
Summary of the method: (§3)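 Evaluation is visual, comparing treated with control plants on a scale where 0 means no effect and 100 means full control. Treatments were preemergence, or postemergence on seedlings 2–18 cm tall, and held 13–15 days in the greenhouse.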

corn = assay: Test B pre-/postemergence herbicide test; type: in vivo, Zea mays; settings: Zea mays; for plant injury at 125 g/ha: 125 g ai/ha
Summary of the method: (§4)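 Visual rating, 0 (no effect) to 100 (complete control), versus untreated controls after 13–15 d in greenhouse. Pre- and postemergence applications (postemergence plants 2–18 cm, 1–4 leaves); flooded paddy arm at 2-leaf stage. Compounds in non-phytotoxic solvent plus surfactant.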

large crabgrass = assay: Test B pre-/postemergence herbicide test; type: in vivo, Digitaria sanguinalis; settings: Digitaria sanguinalis; for pest or weed control at 125 g/ha: 125 g ai/ha; for pest or weed control at 500 g/ha: 500 g ai/ha
Summary of the method: as §4

[1] = test system: small flower umbrella sedge; assay: Test B flooded paddy test; type: in vivo, Cyperus difformis; settings: Cyperus difformis, 336 h, 1000 g ai/ha, scale 0 to 100 (0 no effect, 100 complete control), read-out: Sedge, Umbrella plant response rating
Summary of the method: as §2

ducksalad = assay: Test B flooded paddy test; type: in vivo, Heteranthera limosa; settings: Heteranthera limosa, 336 h, 1000 g ai/ha, scale 0 to 100 (0 no effect, 100 complete control), read-out: Ducksalad plant response rating
Summary of the method: as §2

barnyardgrass [2] = assay: Test B flooded paddy test; type: in vivo, Echinochloa crus-galli; settings: Echinochloa crus-galli, 336 h, 1000 g ai/ha, scale 0 to 100 (0 no effect, 100 complete control), read-out: Barnyardgrass plant response rating
Summary of the method: as §2

pigweed = assay: Test B pre-/postemergence herbicide test; type: in vivo, Amaranthus retroflexus; settings: Amaranthus retroflexus, 336 h; for pest or weed control at 125 g/ha: 125 g ai/ha; for pest or weed control at 500 g/ha: 500 g ai/ha
Summary of the method: as §4

barnyardgrass [3] = assay: Test B pre-/postemergence herbicide test; type: in vivo, Echinochloa crus-galli; settings: Echinochloa crus-galli; for pest or weed control at 125 g/ha: 125 g ai/ha; for pest or weed control at 500 g/ha: 500 g ai/ha
Summary of the method: as §3

Surinam grass = assay: Test B pre-/postemergence herbicide test; type: in vivo, Urochloa decumbens; settings: Urochloa decumbens; for pest or weed control at 125 g/ha: 125 g ai/ha; for pest or weed control at 500 g/ha: 500 g ai/ha
Summary of the method: as §4

velvetleaf = assay: Test B pre-/postemergence herbicide test; type: in vivo, Abutilon theophrasti; settings: Abutilon theophrasti, 336 h; for pest or weed control at 125 g/ha: 125 g ai/ha; for pest or weed control at 500 g/ha: 500 g ai/ha
Summary of the method: as §4

wild oat = assay: Test B postemergence herbicide test; type: in vivo, Avena fatua; settings: Avena fatua, post-emergence, 336 h, postemergence, read-out: Oat, Wild plant response rating
Summary of the method: as §1

giant foxtail = assay: Test B pre-/postemergence herbicide test; type: in vivo, Setaria faberi; settings: Setaria faberi, 336 h; for pest or weed control at 125 g/ha: 125 g ai/ha; for pest or weed control at 500 g/ha: 500 g ai/ha
Summary of the method: as §4

[4] = 125 g ai/ha, visual rating, scale 0 (no effect) to 100 (complete control)
[5] = 500 g ai/ha, scale 0 to 100, 0 is no effect, 100 is complete control
[6] = post-emergence, postemergence, visual rating, scale 0 (no effect) to 100 (complete control), read-out: Cocklebur plant response rating
[7] = post-emergence, postemergence, visual rating, scale 0 (no effect) to 100 (complete control), read-out: Barnyardgrass plant response rating

CCNC(=O)c1cc(NC(=O)c2cn(C(C)(C)C)nc2CC)ccc1F [Compound 241, 1-(1,1-dimethylethyl)-3-ethyl-N-[3-[(ethylamino)carbonyl]-4-fluorophenyl]-1H-pyrazole-4-carboxamide]
plant injury at 125 g/ha (wheat; [4]): 0%
plant injury at 500 g/ha (wheat; [5]): 10%
plant injury at 1000 g/ha (rice): 70%
pest or weed control at 125 g/ha (blackgrass; 125 g ai/ha): 0%
pest or weed control at 500 g/ha (blackgrass; 500 g ai/ha): 10%
pest or weed control at 125 g/ha (cocklebur; [6]): 20%
pest or weed control at 500 g/ha (cocklebur; [6]): 30%
pest or weed control at 125 g/ha (cocklebur; pre-emergence, 0 = no effect, 100 = complete control, read-out: Cocklebur plant response rating (0 to 100 scale)): 0%
pest or weed control at 500 g/ha (cocklebur; pre-emergence, visual rating, 0 = no effect, 100 = complete control, read-out: Plant response rating, Cocklebur): 0%
plant injury at 125 g/ha (corn; post-emergence, postemergence, visual rating, scale 0 (no effect) to 100 (complete control), read-out: Corn plant response rating): 0%
plant injury at 500 g/ha (corn; post-emergence, postemergence, 500 g ai/ha, scale 0 to 100, 0 is no effect, 100 is complete control, read-out: Corn plant response rating): 10%
plant injury at 125 g/ha (corn; pre-emergence, 0 = no effect, 100 = complete control, read-out: Corn plant response rating (0 to 100 scale)): 0%
Corn plant response rating (crop injury, 0 = no effect, 100 = complete kill) at 500 g/ha (corn; pre-emergence, 500 g ai/ha, visual rating, 0 = no effect, 100 = complete control): 30%
pest or weed control at 125 g/ha (large crabgrass; post-emergence, postemergence, visual rating, scale 0 (no effect) to 100 (complete control), read-out: Crabgrass, Large plant response rating): 0%
pest or weed control at 500 g/ha (large crabgrass; post-emergence, postemergence, scale 0 to 100, 0 is no effect, 100 is complete control, read-out: Crabgrass, Large plant response rating): 10%
pest or weed control at 125 g/ha (large crabgrass; pre-emergence, 0 = no effect, 100 = complete control, read-out: Crabgrass, Large plant response rating (0 to 100 scale)): 90%
pest or weed control at 500 g/ha (large crabgrass; pre-emergence, visual rating, 0 = no effect, 100 = complete control, read-out: Plant response rating, Crabgrass, Large): 100%
pest or weed control at 1000 g/ha [1]: 80%
pest or weed control at 1000 g/ha (ducksalad): 70%
pest or weed control at 1000 g/ha (barnyardgrass [2]): 80%
pest or weed control at 125 g/ha (pigweed; post-emergence, postemergence, visual rating, scale 0 (no effect) to 100 (complete control), read-out: Pigweed plant response rating): 30%
pest or weed control at 500 g/ha (pigweed; post-emergence, postemergence, scale 0 to 100, 0 is no effect, 100 is complete control, read-out: Pigweed plant response rating): 50%
pest or weed control at 125 g/ha (pigweed; pre-emergence, 0 = no effect, 100 = complete control, read-out: Pigweed plant response rating (0 to 100 scale)): 100%
pest or weed control at 500 g/ha (pigweed; pre-emergence, visual rating, 0 = no effect, 100 = complete control, read-out: Plant response rating, Pigweed): 100%
pest or weed control at 125 g/ha (barnyardgrass [3]; [7]): 0%
pest or weed control at 500 g/ha (barnyardgrass [3]; [7]): 0%
pest or weed control at 125 g/ha (barnyardgrass [3]; pre-emergence, 0 = no effect, 100 = complete control, read-out: Barnyardgrass plant response rating (0 to 100 scale)): 0%
pest or weed control at 500 g/ha (barnyardgrass [3]; pre-emergence, visual rating, 0 = no effect, 100 = complete control, read-out: Plant response rating, Barnyardgrass): 80%
pest or weed control at 125 g/ha (Surinam grass; post-emergence, postemergence, visual rating, scale 0 (no effect) to 100 (complete control), read-out: Surinam Grass plant response rating): 10%
pest or weed control at 500 g/ha (Surinam grass; post-emergence, postemergence, scale 0 to 100, 0 is no effect, 100 is complete control, read-out: Surinam Grass plant response rating): 20%
pest or weed control at 125 g/ha (Surinam grass; pre-emergence, 0 = no effect, 100 = complete control, read-out: Surinam Grass plant response rating (0 to 100 scale)): 10%
pest or weed control at 500 g/ha (Surinam grass; pre-emergence, visual rating, 0 = no effect, 100 = complete control, read-out: Plant response rating, Surinam Grass): 90%
pest or weed control at 125 g/ha (velvetleaf; post-emergence, postemergence, visual rating, scale 0 (no effect) to 100 (complete control), read-out: Velvetleaf plant response rating): 10%
pest or weed control at 500 g/ha (velvetleaf; post-emergence, postemergence, scale 0 to 100, 0 is no effect, 100 is complete control, read-out: Velvetleaf plant response rating): 10%
pest or weed control at 125 g/ha (velvetleaf; pre-emergence, 0 = no effect, 100 = complete control, read-out: Velvetleaf plant response rating (0 to 100 scale)): 20%
pest or weed control at 500 g/ha (velvetleaf; pre-emergence, visual rating, 0 = no effect, 100 = complete control, read-out: Plant response rating, Velvetleaf): 100%
pest or weed control at 125 g/ha (wild oat; [4]): 0%
pest or weed control at 500 g/ha (wild oat; [5]): 20%
pest or weed control at 125 g/ha (giant foxtail; post-emergence, postemergence, visual rating, scale 0 (no effect) to 100 (complete control), read-out: Foxtail, Giant plant response rating): 0%
pest or weed control at 500 g/ha (giant foxtail; post-emergence, postemergence, scale 0 to 100, 0 is no effect, 100 is complete control, read-out: Foxtail, Giant plant response rating): 0%
pest or weed control at 125 g/ha (giant foxtail; pre-emergence, 0 = no effect, 100 = complete control, read-out: Foxtail, Giant plant response rating (0 to 100 scale)): 10%
pest or weed control at 500 g/ha (giant foxtail; pre-emergence, visual rating, 0 = no effect, 100 = complete control, read-out: Plant response rating, Foxtail, Giant): 90%
